For 1 molecule, solubility in water results are on record in patent publication USRE39104E1, “Process for the production of dry pharmaceutical forms and the thus obtained pharmaceutical compositions” (Laboratoires Effik, priority 1994, dated 2006).

The nature of this series: Solubility in water. Type of series: physicochemical. How it is done: The dosage of the amount of Medroxy progesterone acetate thus dissolved in water was determined by spectrophotometry at 241 nm.

On to `CC(=O)O[C@]1(C(C)=O)CC[C@H]2[C@@H]3C[C@H](C)C4=CC(=O)CC[C@]4(C)[C@H]3CC[C@@]21C` [Medroxy progesterone acetate], for which the solubility in water entry is recorded as “very low”.
